Laboratory results as given in PubChem BioAssay AID1963852 (Molecular Pharmacology Branch, DTP, NCI, 2024).

Test system: 282377-053-R-J1-PDC complex spheroid viability
Experiment: Anticancer human tumor 282377-053-R-J1-PDC patient-derived colon adenocarcinoma cell line growth inhibition [POLQ]
Conditions: for IC50: curve of first compound; for viability, T/C: stronger effect = lower value
How it was run: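 Growth inhibition in 3D: complex spheroids (tumor PDC, HUVEC, MSC) treated with POLQ inhibitor combinations; where Cmax unknown, highest tested concentration 10 microM, except SN-38 at 1 microM.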

[1] = second compound 0.0316 µM, first compound 0.0316 µM
[2] = second compound 0.0316 µM, first compound 0.1 µM
[3] = second compound 0.1 µM, first compound 0.0316 µM
[4] = second compound 0.1 µM, first compound 0.1 µM
[5] = second compound 0.316 µM, first compound 0.0316 µM
[6] = second compound 0.316 µM, first compound 0.1 µM
[7] = second compound 1 µM, first compound 0.0316 µM
[8] = second compound 1 µM, first compound 0.1 µM
[9] = second compound 3.16 µM, first compound 0.0316 µM
[10] = second compound 3.16 µM, first compound 0.1 µM
[11] = second compound 10 µM, first compound 0.0316 µM
[12] = second compound 10 µM, first compound 0.1 µM
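Also: spheroids exposed to compounds for seven days.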
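For viability, T/C in this document: 100% = DMSO vehicle control viability.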

SMILES: C=CC(=O)N1CCN(c2nc(=O)n(-c3c(C)ccnc3C(C)C)c3nc(-c4c(O)cccc4F)c(F)cc23)C(C)C1 (centres undefined) + Cc1cccc(N(C)C(=O)C2C(O)CCN2c2nc(C)cc(C(F)(F)F)c2C#N)c1
- IC50 (second compound 0.0316 µM): > 10 µM
- IC50 (second compound 0.1 µM): > 10 µM
- IC50 (second compound 0.316 µM): > 10 µM
- IC50 (second compound 1 µM): > 10 µM
- IC50 (second compound 3.16 µM): > 10 µM
- IC50 (second compound 10 µM): > 10 µM
- viability, T/C [1]: 94.8%
- viability, T/C [2]: 84.6%
- viability, T/C (second compound 0.0316 µM, first compound 0.316 µM): 119%
- viability, T/C (second compound 0.0316 µM, first compound 1 µM): 89.3%
- viability, T/C (second compound 0.0316 µM, first compound 3.16 µM): 97.3%
- viability, T/C (second compound 0.0316 µM, first compound 10 µM): 80.5%
- viability, T/C [3]: 102%
- viability, T/C [4]: 108%
- viability, T/C (second compound 0.1 µM, first compound 0.316 µM): 93.4%
- viability, T/C (second compound 0.1 µM, first compound 1 µM): 83.5%
- viability, T/C (second compound 0.1 µM, first compound 3.16 µM): 90.4%
- viability, T/C (second compound 0.1 µM, first compound 10 µM): 88.7%
- viability, T/C [5]: 91.2%
- viability, T/C [6]: 106%
- viability, T/C (second compound 0.316 µM, first compound 0.316 µM): 106%
- viability, T/C (second compound 0.316 µM, first compound 1 µM): 89.4%
- viability, T/C (second compound 0.316 µM, first compound 3.16 µM): 74.1%
- viability, T/C (second compound 0.316 µM, first compound 10 µM): 79.3%
- viability, T/C [7]: 79.2%
- viability, T/C [8]: 92.7%
- viability, T/C (second compound 1 µM, first compound 0.316 µM): 89%
- viability, T/C (second compound 1 µM, first compound 1 µM): 80.8%
- viability, T/C (second compound 1 µM, first compound 3.16 µM): 85.7%
- viability, T/C (second compound 1 µM, first compound 10 µM): 76.6%
- viability, T/C [9]: 88.5%
- viability, T/C [10]: 99%
- viability, T/C (second compound 3.16 µM, first compound 0.316 µM): 71.9%
- viability, T/C (second compound 3.16 µM, first compound 1 µM): 88.5%
- viability, T/C (second compound 3.16 µM, first compound 3.16 µM): 84%
- viability, T/C (second compound 3.16 µM, first compound 10 µM): 89.4%
- viability, T/C [11]: 76.7%
- viability, T/C [12]: 80.8%
- viability, T/C (second compound 10 µM, first compound 0.316 µM): 89.7%
- viability, T/C (second compound 10 µM, first compound 1 µM): 86.8%
- viability, T/C (second compound 10 µM, first compound 3.16 µM): 85.8%
- viability, T/C (second compound 10 µM, first compound 10 µM): 70.7%

SMILES: CC[C@@]1(O)C(=O)OCc2c1cc1n(c2=O)Cc2cc3c(CN(C)C)c(O)ccc3nc2-1 + COC1C(OC(N)=O)C(O)C(Oc2ccc3c(O)c(NC(=O)c4ccc(O)c(CC=C(C)C)c4)c(=O)oc3c2C)OC1(C)C
- IC50 (second compound 0.0316 µM): > 0.1 µM
- IC50 (second compound 0.1 µM): > 0.1 µM
- IC50 (second compound 0.316 µM): > 0.1 µM
- IC50 (second compound 1 µM): > 0.1 µM
- IC50 (second compound 3.16 µM): > 0.1 µM
- IC50 (second compound 10 µM): > 0.1 µM
- viability, T/C (second compound 0.0316 µM, first compound 0.000316 µM): 120%
- viability, T/C (second compound 0.0316 µM, first compound 0.001 µM): 114%
- viability, T/C (second compound 0.0316 µM, first compound 0.00316 µM): 119%
- viability, T/C (second compound 0.0316 µM, first compound 0.01 µM): 99.6%
- viability, T/C [1]: 112%
- viability, T/C [2]: 72%
- viability, T/C (second compound 0.1 µM, first compound 0.000316 µM): 130%
- viability, T/C (second compound 0.1 µM, first compound 0.001 µM): 106%
- viability, T/C (second compound 0.1 µM, first compound 0.00316 µM): 116%
- viability, T/C (second compound 0.1 µM, first compound 0.01 µM): 115%
- viability, T/C [3]: 106%
- viability, T/C [4]: 64.6%
- viability, T/C (second compound 0.316 µM, first compound 0.000316 µM): 106%
- viability, T/C (second compound 0.316 µM, first compound 0.001 µM): 105%
- viability, T/C (second compound 0.316 µM, first compound 0.00316 µM): 85.3%
- viability, T/C (second compound 0.316 µM, first compound 0.01 µM): 100%
- viability, T/C [5]: 110%
- viability, T/C [6]: 69.3%
- viability, T/C (second compound 1 µM, first compound 0.000316 µM): 101%
- viability, T/C (second compound 1 µM, first compound 0.001 µM): 112%
- viability, T/C (second compound 1 µM, first compound 0.00316 µM): 131%
- viability, T/C (second compound 1 µM, first compound 0.01 µM): 91.2%
- viability, T/C [7]: 91.8%
- viability, T/C [8]: 70.5%
- viability, T/C (second compound 3.16 µM, first compound 0.000316 µM): 102%
- viability, T/C (second compound 3.16 µM, first compound 0.001 µM): 105%
- viability, T/C (second compound 3.16 µM, first compound 0.00316 µM): 97.5%
- viability, T/C (second compound 3.16 µM, first compound 0.01 µM): 123%
- viability, T/C [9]: 111%
- viability, T/C [10]: 58.5%
- viability, T/C (second compound 10 µM, first compound 0.000316 µM): 112%
- viability, T/C (second compound 10 µM, first compound 0.001 µM): 110%
- viability, T/C (second compound 10 µM, first compound 0.00316 µM): 111%
- viability, T/C (second compound 10 µM, first compound 0.01 µM): 80.7%
- viability, T/C [11]: 102%
- viability, T/C [12]: 70.3%
